These results are taken from US12275731B2, “Azaindole inhibitors of wild-type and mutant forms of LRRK2” (DANA-FARBER CANCER INSTITUTE, INC., priority 2018, dated 2025).

Each structure is given as a SMILES string.

Holding throughout (test): KinomeScan profiling
Holding throughout (format): binding

The target in one test is T1, AMPK-alpha2 (Homo sapiens, UniProt P54646).
T1 construct: purchased KinomeScan®
To be noted: AMPK-alpha2, 1 μM; read-out: % control. Summed up: (§1)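 Selectivity was assessed by binding competition at 1 μM against 468 kinases. Values below 35% of control define an interaction.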

The target of a further test is T2, SRPK3 (Homo sapiens, UniProt Q9UPE1).
T2 construct: purchased KinomeScan® (panel service)
T2 sequence (Q9UPE1 whole entry): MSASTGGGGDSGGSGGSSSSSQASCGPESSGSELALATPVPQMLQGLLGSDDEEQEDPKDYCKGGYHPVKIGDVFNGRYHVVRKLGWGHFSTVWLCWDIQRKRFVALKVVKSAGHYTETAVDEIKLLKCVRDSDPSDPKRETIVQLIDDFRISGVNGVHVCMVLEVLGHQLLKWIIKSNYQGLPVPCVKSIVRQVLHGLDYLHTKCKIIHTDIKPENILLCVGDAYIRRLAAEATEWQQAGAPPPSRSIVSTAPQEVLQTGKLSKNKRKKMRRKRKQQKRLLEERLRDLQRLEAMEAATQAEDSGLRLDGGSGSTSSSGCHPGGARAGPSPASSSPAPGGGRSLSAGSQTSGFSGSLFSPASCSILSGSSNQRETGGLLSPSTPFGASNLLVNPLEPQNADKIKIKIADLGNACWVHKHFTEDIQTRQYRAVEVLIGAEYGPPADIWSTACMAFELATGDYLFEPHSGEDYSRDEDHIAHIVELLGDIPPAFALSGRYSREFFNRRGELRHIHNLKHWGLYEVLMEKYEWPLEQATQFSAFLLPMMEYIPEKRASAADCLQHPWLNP
To be noted: SRPK3, 1 μM; read-out: % control. Put shortly:
as §1

In another test the target is T3, S6K1 (Homo sapiens, UniProt P23443).
T3 construct: purchased KinomeScan® (panel service)
T3 sequence (P23443 whole entry): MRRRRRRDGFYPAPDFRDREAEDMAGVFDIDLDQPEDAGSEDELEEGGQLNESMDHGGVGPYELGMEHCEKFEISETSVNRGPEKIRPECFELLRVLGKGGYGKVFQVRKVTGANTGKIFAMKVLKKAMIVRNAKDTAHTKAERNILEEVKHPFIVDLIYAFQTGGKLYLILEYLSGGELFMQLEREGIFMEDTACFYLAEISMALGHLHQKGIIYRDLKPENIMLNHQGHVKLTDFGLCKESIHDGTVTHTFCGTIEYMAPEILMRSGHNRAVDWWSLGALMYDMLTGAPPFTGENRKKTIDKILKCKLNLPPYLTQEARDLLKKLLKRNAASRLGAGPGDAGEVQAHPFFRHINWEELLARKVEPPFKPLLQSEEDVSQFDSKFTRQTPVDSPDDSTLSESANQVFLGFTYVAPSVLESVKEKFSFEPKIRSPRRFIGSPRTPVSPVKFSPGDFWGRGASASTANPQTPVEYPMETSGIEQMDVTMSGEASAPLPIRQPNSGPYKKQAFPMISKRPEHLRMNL
To be noted: S6K1, 1 μM; read-out: % control. Put shortly:
as §1

The next test addresses FLT4 (Homo sapiens, UniProt P35916). To be noted: FLT4, 1 μM; read-out: % control. Summed up:
as §1

A further test addresses DMPK2 (Homo sapiens, UniProt Q6DT37). Particulars: DMPK2, 1 μM; read-out: % control. Summed up: as §1
The target in a further test is LOK (Homo sapiens, UniProt O94804). To be noted: read-out: % control. Put shortly:
as §1

For another test, the target named is T4, KIT(D816H) (Homo sapiens, UniProt P10721, D816H).
T4 construct: purchased KinomeScan®
T4 sequence (P10721 26-976 D816H): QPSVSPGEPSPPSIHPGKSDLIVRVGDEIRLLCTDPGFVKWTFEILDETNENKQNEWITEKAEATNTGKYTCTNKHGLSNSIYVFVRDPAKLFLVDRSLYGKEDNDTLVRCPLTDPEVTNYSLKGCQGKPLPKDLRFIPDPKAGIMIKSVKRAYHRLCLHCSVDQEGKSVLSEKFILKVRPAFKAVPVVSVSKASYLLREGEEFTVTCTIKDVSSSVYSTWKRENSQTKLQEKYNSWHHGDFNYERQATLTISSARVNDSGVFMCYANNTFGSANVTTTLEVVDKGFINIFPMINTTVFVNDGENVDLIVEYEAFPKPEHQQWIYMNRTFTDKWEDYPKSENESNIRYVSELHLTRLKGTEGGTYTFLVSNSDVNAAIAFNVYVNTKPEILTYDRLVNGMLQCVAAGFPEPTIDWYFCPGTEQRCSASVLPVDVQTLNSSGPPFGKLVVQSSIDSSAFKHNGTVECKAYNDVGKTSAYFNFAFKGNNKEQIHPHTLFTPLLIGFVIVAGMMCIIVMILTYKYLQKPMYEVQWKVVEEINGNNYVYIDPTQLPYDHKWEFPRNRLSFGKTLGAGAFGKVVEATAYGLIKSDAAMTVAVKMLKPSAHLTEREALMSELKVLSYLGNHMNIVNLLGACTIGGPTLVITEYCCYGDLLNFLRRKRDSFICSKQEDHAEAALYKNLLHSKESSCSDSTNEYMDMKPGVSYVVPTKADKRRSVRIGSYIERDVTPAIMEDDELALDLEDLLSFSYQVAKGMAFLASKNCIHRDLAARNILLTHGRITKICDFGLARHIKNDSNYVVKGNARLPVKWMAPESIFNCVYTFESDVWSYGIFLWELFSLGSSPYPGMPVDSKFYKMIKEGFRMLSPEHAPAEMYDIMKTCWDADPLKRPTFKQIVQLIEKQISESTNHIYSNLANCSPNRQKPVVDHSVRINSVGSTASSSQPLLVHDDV
To be noted: read-out: % control. Put shortly: as §1

A further test addresses EPHA7 (Homo sapiens, UniProt Q15375). Particulars: EPHA7, 1 μM; read-out: % control. Summed up:
as §1

A further test addresses ERBB4 (Homo sapiens, UniProt Q15303). Particulars: ERBB4, 1 μM; read-out: % control. Put shortly:
as §1

For the next test, the target named is PLK1 (Homo sapiens, UniProt P53350). Particulars: PLK1, 1 μM; read-out: % control. Summed up:
as §1

For the next test, the target named is T5, JNK1 (Homo sapiens, UniProt P45983).
T5 construct: purchased KinomeScan®
To be noted: JNK1, 1 μM; read-out: % control. Summed up:
as §1

The next test deals with NDR1 (Homo sapiens, UniProt Q15208). Particulars: NDR1, 1 μM; read-out: % control. Put shortly:
as §1

For a further test, the target named is T6, SNRK (Homo sapiens, UniProt Q9NRH2).
T6 construct: purchased KinomeScan® (panel service)
T6 sequence (Q9NRH2 1-765): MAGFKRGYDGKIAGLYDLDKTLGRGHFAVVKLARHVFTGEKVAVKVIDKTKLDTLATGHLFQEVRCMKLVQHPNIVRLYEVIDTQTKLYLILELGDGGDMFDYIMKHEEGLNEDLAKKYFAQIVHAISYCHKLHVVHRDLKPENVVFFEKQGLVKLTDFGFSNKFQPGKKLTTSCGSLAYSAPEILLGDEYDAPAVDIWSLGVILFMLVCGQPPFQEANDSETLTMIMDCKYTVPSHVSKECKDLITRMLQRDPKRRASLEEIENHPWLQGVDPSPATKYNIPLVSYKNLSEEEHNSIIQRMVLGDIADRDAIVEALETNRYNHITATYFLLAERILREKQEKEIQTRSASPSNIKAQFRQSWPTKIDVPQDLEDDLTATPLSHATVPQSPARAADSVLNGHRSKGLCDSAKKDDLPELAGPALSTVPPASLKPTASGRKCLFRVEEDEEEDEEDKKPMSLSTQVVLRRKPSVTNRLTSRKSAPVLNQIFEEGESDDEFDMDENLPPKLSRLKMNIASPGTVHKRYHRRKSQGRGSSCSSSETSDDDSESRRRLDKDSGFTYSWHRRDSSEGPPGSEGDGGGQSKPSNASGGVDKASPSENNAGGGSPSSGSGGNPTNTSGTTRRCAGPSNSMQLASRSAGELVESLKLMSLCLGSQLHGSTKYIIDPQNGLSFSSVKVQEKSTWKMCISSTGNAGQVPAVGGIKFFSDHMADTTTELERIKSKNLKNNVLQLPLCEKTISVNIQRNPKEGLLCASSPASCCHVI
Particulars: read-out: % control. Put shortly:
as §1

A further test concerns the target T7, PIK3CB (Homo sapiens, UniProt P42338).
T7 construct: purchased KinomeScan® (panel service)
Particulars: read-out: % control. Summed up:
as §1

The next test concerns the target T8, CSNK1A1L (Homo sapiens, UniProt Q8N752).
T8 sequence (Q8N752 1-337): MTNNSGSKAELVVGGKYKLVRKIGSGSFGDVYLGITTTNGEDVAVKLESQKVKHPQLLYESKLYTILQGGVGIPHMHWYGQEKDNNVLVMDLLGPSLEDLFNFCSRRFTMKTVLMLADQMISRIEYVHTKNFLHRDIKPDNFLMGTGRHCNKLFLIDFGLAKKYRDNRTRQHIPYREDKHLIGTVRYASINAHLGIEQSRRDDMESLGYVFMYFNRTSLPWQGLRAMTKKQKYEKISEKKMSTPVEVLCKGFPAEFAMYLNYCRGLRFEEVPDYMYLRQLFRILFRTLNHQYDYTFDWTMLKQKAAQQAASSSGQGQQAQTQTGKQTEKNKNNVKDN
Particulars: read-out: % control. Summed up:
as §1

The next test has as its target T9, p38-gamma (Homo sapiens, UniProt P53778).
T9 sequence (P53778 1-367): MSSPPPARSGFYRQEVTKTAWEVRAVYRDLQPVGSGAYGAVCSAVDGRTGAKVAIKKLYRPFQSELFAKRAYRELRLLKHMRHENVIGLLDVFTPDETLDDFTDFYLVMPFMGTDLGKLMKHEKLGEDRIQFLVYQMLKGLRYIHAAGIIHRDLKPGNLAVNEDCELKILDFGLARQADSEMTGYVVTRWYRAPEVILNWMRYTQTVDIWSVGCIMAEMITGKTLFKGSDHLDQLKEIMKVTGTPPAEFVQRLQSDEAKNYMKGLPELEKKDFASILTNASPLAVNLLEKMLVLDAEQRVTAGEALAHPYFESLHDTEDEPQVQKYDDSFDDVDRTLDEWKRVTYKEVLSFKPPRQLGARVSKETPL
Particulars: read-out: % control. Summed up:
as §1

For test [1], the target named is T10, RSK1(Kin.Dom.2-C-terminal) (Homo sapiens, UniProt Q15418).
T10 construct: RSK1(Kin.Dom.2-C-terminal)
T10 sequence (Q15418 418-675 limits assumed): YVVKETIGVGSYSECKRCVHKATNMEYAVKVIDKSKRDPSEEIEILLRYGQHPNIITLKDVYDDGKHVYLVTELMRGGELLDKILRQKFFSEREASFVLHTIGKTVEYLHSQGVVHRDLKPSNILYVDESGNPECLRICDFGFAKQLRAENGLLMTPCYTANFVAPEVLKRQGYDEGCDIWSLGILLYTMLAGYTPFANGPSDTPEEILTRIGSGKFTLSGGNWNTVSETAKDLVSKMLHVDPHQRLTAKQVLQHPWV
Particulars: read-out: % control. Summed up:
as §1

Chain of FLT4 (P35916 25-1363): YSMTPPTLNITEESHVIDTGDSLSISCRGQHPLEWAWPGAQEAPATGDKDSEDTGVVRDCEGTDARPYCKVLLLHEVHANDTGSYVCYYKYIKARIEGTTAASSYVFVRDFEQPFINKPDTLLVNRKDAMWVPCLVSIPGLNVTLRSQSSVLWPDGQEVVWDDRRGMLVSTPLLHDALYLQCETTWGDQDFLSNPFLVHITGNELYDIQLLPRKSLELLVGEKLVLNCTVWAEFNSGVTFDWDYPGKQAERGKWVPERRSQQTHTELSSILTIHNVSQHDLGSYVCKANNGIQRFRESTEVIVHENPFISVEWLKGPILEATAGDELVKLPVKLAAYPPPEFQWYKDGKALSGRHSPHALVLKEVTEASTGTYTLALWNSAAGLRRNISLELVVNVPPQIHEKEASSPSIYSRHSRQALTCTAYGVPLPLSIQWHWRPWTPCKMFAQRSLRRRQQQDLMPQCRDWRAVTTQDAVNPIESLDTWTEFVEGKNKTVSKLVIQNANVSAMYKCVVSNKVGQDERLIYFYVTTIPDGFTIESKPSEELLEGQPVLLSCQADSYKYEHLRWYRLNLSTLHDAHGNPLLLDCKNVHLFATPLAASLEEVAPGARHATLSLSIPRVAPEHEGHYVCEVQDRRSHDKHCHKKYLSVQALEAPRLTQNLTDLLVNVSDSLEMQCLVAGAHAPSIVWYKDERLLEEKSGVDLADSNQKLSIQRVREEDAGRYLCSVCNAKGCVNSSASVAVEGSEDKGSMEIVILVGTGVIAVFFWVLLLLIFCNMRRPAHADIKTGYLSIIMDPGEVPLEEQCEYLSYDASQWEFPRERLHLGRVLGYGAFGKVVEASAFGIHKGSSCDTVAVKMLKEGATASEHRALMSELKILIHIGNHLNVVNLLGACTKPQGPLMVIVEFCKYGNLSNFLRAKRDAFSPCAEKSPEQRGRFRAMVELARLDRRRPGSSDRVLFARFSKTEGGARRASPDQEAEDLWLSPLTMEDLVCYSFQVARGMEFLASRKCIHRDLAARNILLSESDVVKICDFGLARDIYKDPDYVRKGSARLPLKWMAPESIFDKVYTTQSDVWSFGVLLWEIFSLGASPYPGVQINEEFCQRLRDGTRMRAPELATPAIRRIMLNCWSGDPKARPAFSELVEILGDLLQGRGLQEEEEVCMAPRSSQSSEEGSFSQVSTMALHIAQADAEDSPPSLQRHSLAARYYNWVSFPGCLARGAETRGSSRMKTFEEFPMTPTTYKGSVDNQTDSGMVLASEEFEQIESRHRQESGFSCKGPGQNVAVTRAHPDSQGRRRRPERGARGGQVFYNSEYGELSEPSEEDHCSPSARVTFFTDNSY
Chain of NDR1 (Q15208 whole entry): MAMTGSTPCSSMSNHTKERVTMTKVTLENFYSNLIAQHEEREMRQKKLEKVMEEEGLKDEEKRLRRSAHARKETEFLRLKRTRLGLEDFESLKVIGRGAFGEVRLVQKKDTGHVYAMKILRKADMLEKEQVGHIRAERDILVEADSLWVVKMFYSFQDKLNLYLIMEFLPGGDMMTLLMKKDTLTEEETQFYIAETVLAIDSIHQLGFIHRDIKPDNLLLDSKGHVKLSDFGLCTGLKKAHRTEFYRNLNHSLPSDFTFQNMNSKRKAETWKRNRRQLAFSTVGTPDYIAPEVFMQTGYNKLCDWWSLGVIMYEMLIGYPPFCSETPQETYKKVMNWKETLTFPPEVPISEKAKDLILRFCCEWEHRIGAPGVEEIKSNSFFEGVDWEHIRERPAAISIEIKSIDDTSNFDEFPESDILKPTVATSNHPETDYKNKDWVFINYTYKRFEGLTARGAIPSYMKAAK
Chain of EPHA7 (Q15375 28-998): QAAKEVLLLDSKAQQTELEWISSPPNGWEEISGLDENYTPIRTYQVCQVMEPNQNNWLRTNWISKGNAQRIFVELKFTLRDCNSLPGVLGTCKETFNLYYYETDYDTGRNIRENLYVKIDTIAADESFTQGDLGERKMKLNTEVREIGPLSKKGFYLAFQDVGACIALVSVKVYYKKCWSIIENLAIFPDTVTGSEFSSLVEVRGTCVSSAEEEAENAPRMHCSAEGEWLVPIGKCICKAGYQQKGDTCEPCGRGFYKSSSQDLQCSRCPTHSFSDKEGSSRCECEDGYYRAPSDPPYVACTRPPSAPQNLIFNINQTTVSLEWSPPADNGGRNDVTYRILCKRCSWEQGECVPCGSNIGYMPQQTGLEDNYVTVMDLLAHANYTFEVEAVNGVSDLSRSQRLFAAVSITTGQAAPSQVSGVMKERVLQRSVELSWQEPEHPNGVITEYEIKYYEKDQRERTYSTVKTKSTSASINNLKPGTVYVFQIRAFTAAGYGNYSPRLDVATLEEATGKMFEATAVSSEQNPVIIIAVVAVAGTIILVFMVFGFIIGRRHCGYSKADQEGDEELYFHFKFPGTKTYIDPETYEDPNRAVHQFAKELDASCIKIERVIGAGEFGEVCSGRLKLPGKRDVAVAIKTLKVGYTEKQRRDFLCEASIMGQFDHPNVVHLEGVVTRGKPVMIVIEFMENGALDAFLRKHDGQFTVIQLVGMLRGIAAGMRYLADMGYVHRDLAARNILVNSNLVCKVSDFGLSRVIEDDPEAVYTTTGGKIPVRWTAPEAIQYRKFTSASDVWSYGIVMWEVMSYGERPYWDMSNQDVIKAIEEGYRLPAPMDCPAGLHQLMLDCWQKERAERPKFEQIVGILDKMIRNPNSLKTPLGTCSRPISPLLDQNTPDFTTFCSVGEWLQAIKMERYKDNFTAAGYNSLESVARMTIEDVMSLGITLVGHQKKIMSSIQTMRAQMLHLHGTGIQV

On to `CNc1c(-c2ccc(C(=O)N3CCC(N4CCOCC4)CC3)cc2)cnc2[nH]cc(Cl)c12` [Compound 96, (4-(3-chloro-4-(methylamino)-1H-pyrrolo[2,3-b]pyridin-5-yl)phenyl)(4-morpholinopiperidin-1-yl)methanone], for which the remaining binding at 1 µM was 66% at AMPK-alpha2; 17% at SRPK3; 87% at S6K1; 66% on FLT4; 91% on DMPK2; 88% at LOK. For the same compound, the remaining binding at 1 µM at KIT(D816H) came out at 75%; at EPHA7, 96%; at ERBB4, 100%; at PLK1, 64%; on JNK1 it was 0.05%; on NDR1, 69%. The remaining binding at 1 µM on SNRK is 100%; on PIK3CB, 100%; on CSNK1A1L, 48%; on p38-gamma it was 92%; in [1] it was 100%.

In the case of `O=C(c1ccc(-c2cnc3[nH]cc(Cl)c3c2NC2CCCC2)cc1)N1CCC(N2CCOCC2)CC1` [Compound 101, (4-(3-chloro-4-(cyclopentylamino)-1H-pyrrolo[2,3-b]pyridin-5-yl)phenyl)(4-morpholinopiperidin-1-yl)methanone], the remaining binding at 1 µM at AMPK-alpha2 came out at 55%; at SRPK3, 9.9%; on S6K1 it was 100%; on FLT4, 100%; on DMPK2 it was 100%; at LOK, 81%. The remaining binding at 1 µM at KIT(D816H) was 92%; at EPHA7, 96%; on ERBB4 it was 97%; on PLK1, 98%; on JNK1, 7.1%; at NDR1, 84%. Further, the remaining binding at 1 µM was determined as 100% at SNRK; 100% on PIK3CB; 100% at CSNK1A1L; 79% at p38-gamma; 88% in test [1].

Take `CNc1c(-c2cnn([C@H]3CCN(C(C)=O)C[C@@H]3F)c2)cnc2[nH]cc(Cl)c12` [Compound 77, 1-((3S,4S)-4-(4-(3-chloro-4-(methylamino)-1H-pyrrolo[2,3-b]pyridin-5-yl)-1H-pyrazol-1-yl)-3-fluoropiperidin-1-yl)ethan-1-one]: the remaining binding at 1 µM is 99% on AMPK-alpha2; 16% at SRPK3; 50% on S6K1; 47% on FLT4; 80% on DMPK2; 99% at LOK. Further, the remaining binding at 1 µM at KIT(D816H) is 51%; at EPHA7 it was 78%; on ERBB4, 100%; on PLK1, 65%; on JNK1, 1.1%; at NDR1, 74%. Further, the remaining binding at 1 µM worked out at 100% at SNRK; 100% at PIK3CB; 79% on CSNK1A1L; 97% at p38-gamma; 99% in [1].
